Source: patent US11827663B2, “Use of UAP inhibitors to inhibit flux through the hexosamine biosynthetic pathway” (The Johns Hopkins University, priority 2014, dated 2023)

Key:
[1] = tested on: primary human adipose stem cells (hASCs); assay: Cell count assay in control cells (human ASCs); assay type: cell-based
From the text: FIG. 4A and FIG. 4B depict histogram results of cell count assays after two days of exposure to each analog in cancer cell lines (SW1990 and PANC-1) and in control cells (human ASCs). […] In all cases, IC50 values were greater than 300 which is the highest concentration tested, for the ACSs, while the Ac4Glc2Bz analogs and Ac4Gal2Bz analogs were effective to reduce cell numbers in both cancer cell lines.

[2] = tested on: primary glioblastoma cell line 612; assay: Cell count of primary glioblastoma line 612; assay type: cell-based
Protocol: FIG. 7A depicts the results of primary glioblastoma lines 612 and GS1049 after incubation for 48 h with Ac4Glc2Bz followed by cell counting and normalization to untreated controls. The data is log transformed to easily determine IC50 values. FIG. 7B and FIG. 7C depict the measurement of proliferation of the primary glioblastoma lines after 48 h incubation with Ac4Glc2Bz using a MTT assay.
Furthermore, cell morphologies were grossly altered as concentrations of Ac4Glc2Bz were increased, which likely indicated severe metabolic stress, induction of apoptosis, and possibly altered adhesion.
Cells were incubated at a range of concentrations of the UAP inhibitors (typically at 0, 10, 25, 50, 100, and 150 μM) and the number of cells were quantified, typically by automated counting (e.g., with a Coulter Counter Z2 instrument) after 1, 2, 3, or 5 days of exposure.

IC50 ([1]; Homo sapiens, 48 h, two days of exposure, 300 is the highest concentration tested): > 300 µM
Compound: CC(=O)OCC1OC(OC(C)=O)[C@@H](NC(=O)c2ccccc2)[C@@H](OC(C)=O)[C@@H]1OC(C)=O (stereo partly shown) [Ac4Glc2Bz]
cytotoxicity / inhibition of normal ASCs ([1]; normal cells): minimally inhibits
cell densities under a microscope ([2]; 612 cells treated for 48 hours, FIG. 11): striking reduction in cell densities in a dose dependent manner
IC50 ([2]; 48 h incubation, cell counting normalized to untreated controls, read-out: Estimated IC50 values, 612): 36.2 ± 1.1 µM
